Results: article PMC10017709, “Structural basis of selective cannabinoid CB2 receptor activation” (Nature Communications, 2023)
“And” between values parts separate entries of the source, which are not always exact repeats. Identical values can stand only once.

Assays:
hCB2R = target: T1, hCB2R (Homo sapiens, UniProt P34972); assay: [3H]RO6957022 competition association assay; format: binding
T1 construct: host or cells: CHO-K1 (CHOK1_hCB2bgal, PathHunter), membranes

CB2R WT = CB2R WT (Homo sapiens, UniProt P34972); assay: [35S]GTPγS G protein activation assay, CB2R WT; format: biochemical; details: for Emax: CB2R WT
CB2R-I110^3.29L = CB2R-I110^3.29L (Homo sapiens, UniProt P34972, I110L); assay: [35S]GTPγS assay, CB2R I110L mutant; format: biochemical; details: for [35S]GTPγS binding: I1103.29L, individual replicates
CB2R-I110^3.29A = CB2R-I110^3.29A (Homo sapiens, UniProt P34972, I110A); assay: [35S]GTPγS assay, CB2R I110A mutant; format: biochemical; details: for [35S]GTPγS binding: I1103.29A, individual replicates
CB2R-S285^7.39A = CB2R-S285^7.39A (Homo sapiens, UniProt P34972, S285A); assay: [35S]GTPγS assay, CB2R S285A mutant; format: biochemical
CB2R-F117^3.36A = CB2R-F117^3.36A (Homo sapiens, UniProt P34972, F117A); assay: [35S]GTPγS assay, CB2R F117A mutant; format: biochemical
CB2R-H95^2.65A = CB2R-H95^2.65A (Homo sapiens, UniProt P34972, H95A); assay: [35S]GTPγS assay, CB2R H95A mutant; format: biochemical
CB2R-V261^6.51L = CB2R-V261^6.51L (Homo sapiens, UniProt P34972, V261L); assay: [35S]GTPγS assay, CB2R V261L mutant; format: biochemical; details: for [35S]GTPγS binding: V2616.51L, individual replicates
CB2R-L185^ECL2H = CB2R-L185^ECL2H (Homo sapiens, UniProt P34972, L185H); assay: [35S]GTPγS assay, CB2R L185H mutant; format: biochemical
CB2R-L182^ECL2I = CB2R-L182^ECL2I (Homo sapiens, UniProt P34972, L182I); assay: [35S]GTPγS assay, CB2R L182I mutant; format: biochemical
CB2R-E181^ECL2D = CB2R-E181^ECL2D (Homo sapiens, UniProt P34972, E181D); assay: [35S]GTPγS assay, CB2R E181D mutant; format: biochemical
CB2R-Quadruple^TM1,7 = CB2R-Quadruple^TM1,7 (Homo sapiens, UniProt P34972, C40S/K279T/K33Q/V36I); assay: [35S]GTPγS assay, CB2R quadruple mutant; format: biochemical
Protocol: In short, transient HEK293T membrane homogenates (10 µg/well) were diluted in assay buffer (50 mM Tris-HCl (pH 7.4), 5 mM MgCl2, 150 mM NaCl, 1 mM EDTA, 0.05% BSA (w/v) and 1 mM DTT, freshly prepared every day) and were pretreated with 10 µg saponin and 1 µM GDP. For endocannabinoid samples, the membranes were additionally pretreated for 30 min with 50 µM PMSF before agonist addition. […] Basal receptor activity was determined in the presence of vehicle only (0.2% DMSO/acetonitrile). […] Filtration was performed, and filter-bound radioactivity was determined as described under [^3H]RO6957022 Competition Association Assays except for using ice-cold 50 mM Tris-HCl (pH 7.4), 5 mM MgCl2 buffer.

hCB1R WT [1] = target: T2, hCB1R WT (Homo sapiens, UniProt P21554); assay: [3H]CP55,940 displacement assay, CB1R WT; format: binding
CB1R-L359^6.51V = CB1R-L359^6.51V (Homo sapiens, UniProt P21554, L359V); assay: [3H]CP55,940 displacement assay, CB1R L359V mutant; format: binding
CB1R-H270^ECL2L [2] = target: T3, CB1R-H270^ECL2L (Homo sapiens, UniProt P21554, H270L); assay: [3H]CP55,940 displacement assay, CB1R H270L mutant; format: binding
CB1R I267ECL2L [3] = target: T4, CB1R I267ECL2L (Homo sapiens, UniProt P21554, I267L); assay: [3H]CP55,940 displacement assay, CB1R I267L mutant; format: binding
CB1R D266ECL2E [4] = target: T5, CB1R D266ECL2E (Homo sapiens, UniProt P21554, D266E); assay: [3H]CP55,940 displacement assay, CB1R D266E mutant; format: binding
T5 construct: The WT CB1R and CB2R genes were subcloned into vector pcDNA3.1; HA signal peptide (N); expressed in transfected cells; host or cells: HEK293T (transient, membrane homogenates)

CB1R QuadrupleTM1,7 [5] = target: T6, CB1R QuadrupleTM1,7 (Homo sapiens, UniProt P21554, I119V/Q116K/S123C/T377K); assay: [3H]CP55,940 displacement assay, CB1R quadruple mutant; format: binding
T6 construct: The WT CB1R and CB2R genes were subcloned into vector pcDNA3.1; HA signal peptide (N); expressed in transfected cells; host or cells: HEK293T (transient, membrane homogenates)

hCB1R WT [6] = target: T2, hCB1R WT; assay: [35S]GTPγS G protein activation assay, CB1R WT; format: biochemical; details: CB1R WT; 10 µM agonist
CB1R-H270^ECL2L [7] = target: T3, CB1R-H270^ECL2L; assay: [35S]GTPγS assay, CB1R H270L mutant; format: biochemical; details: CB1R H270L; 10 µM agonist
CB1R I267ECL2L [8] = target: T4, CB1R I267ECL2L; assay: [35S]GTPγS assay, CB1R I267L mutant; format: biochemical; details: CB1R I267L; 10 µM agonist
CB1R D266ECL2E [9] = target: T5, CB1R D266ECL2E; assay: [35S]GTPγS assay, CB1R D266E mutant; format: biochemical; details: CB1R D266E; 10 µM agonist
CB1R QuadrupleTM1,7 [10] = assay: [35S]GTPγS assay, CB1R quadruple mutant; format: biochemical, human; details: CB1R Quadruple TM1,7; 10 µM agonist

CB2R-V261^6.51L, sequence (P34972 whole entry V261L): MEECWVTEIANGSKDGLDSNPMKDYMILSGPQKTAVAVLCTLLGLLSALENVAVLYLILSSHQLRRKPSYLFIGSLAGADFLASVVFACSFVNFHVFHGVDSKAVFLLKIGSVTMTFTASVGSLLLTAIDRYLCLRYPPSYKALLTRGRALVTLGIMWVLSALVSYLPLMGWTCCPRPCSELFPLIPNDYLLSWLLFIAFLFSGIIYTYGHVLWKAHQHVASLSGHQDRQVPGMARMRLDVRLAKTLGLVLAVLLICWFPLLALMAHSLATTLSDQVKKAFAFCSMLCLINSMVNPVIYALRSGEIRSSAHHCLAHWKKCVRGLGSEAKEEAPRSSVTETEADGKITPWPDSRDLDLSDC
T2 sequence (P21554 whole entry): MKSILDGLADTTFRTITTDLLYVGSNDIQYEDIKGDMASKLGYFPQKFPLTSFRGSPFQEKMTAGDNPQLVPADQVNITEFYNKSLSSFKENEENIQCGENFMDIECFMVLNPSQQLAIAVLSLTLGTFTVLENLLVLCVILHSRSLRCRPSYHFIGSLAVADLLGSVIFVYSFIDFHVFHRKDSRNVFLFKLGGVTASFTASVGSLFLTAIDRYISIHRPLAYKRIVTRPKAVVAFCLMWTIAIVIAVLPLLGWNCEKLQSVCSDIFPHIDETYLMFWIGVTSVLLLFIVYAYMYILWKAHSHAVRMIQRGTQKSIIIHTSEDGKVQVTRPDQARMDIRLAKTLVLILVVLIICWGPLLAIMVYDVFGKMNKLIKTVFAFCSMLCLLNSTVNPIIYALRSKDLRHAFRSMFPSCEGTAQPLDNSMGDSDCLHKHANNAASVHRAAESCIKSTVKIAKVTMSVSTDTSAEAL
CB2R-F117^3.36A, sequence (P34972 whole entry F117A): as the sequence (P34972 whole entry V261L) above, with F117A, L261V counted along it
CB1R-L359^6.51V, sequence (P21554 whole entry L359V): as the sequence (P21554 whole entry) above, with L359V counted along it
T5 sequence (P21554 whole entry D266E): as the sequence (P21554 whole entry) above, with D266E counted along it
T4 sequence (P21554 whole entry I267L): as the sequence (P21554 whole entry) above, with I267L counted along it
CB2R-S285^7.39A, sequence (P34972 whole entry S285A): as the sequence (P34972 whole entry V261L) above, with L261V, S285A counted along it
CB2R-I110^3.29A, sequence (P34972 whole entry I110A): as the sequence (P34972 whole entry V261L) above, with I110A, L261V counted along it
CB2R-I110^3.29L, sequence (P34972 whole entry I110L): as the sequence (P34972 whole entry V261L) above, with I110L, L261V counted along it
CB2R WT, sequence (P34972 whole entry): as the sequence (P34972 whole entry V261L) above, with L261V counted along it
T3 sequence (P21554 whole entry H270L): as the sequence (P21554 whole entry) above, with H270L counted along it
T6 sequence (P21554 whole entry Q116K/I119V/S123C/T377K): as the sequence (P21554 whole entry) above, with Q116K, I119V, S123C, T377K counted along it
CB2R-Quadruple^TM1,7, sequence (P34972 whole entry K33Q/V36I/C40S/K279T): as the sequence (P34972 whole entry V261L) above, with K33Q, V36I, C40S, L261V, K279T counted along it
T1 sequence (P34972 whole entry): as the sequence (P34972 whole entry V261L) above, with L261V counted along it
CB2R-E181^ECL2D, sequence (P34972 whole entry E181D): as the sequence (P34972 whole entry V261L) above, with E181D, L261V counted along it
CB2R-L185^ECL2H, sequence (P34972 whole entry L185H): as the sequence (P34972 whole entry V261L) above, with L185H, L261V counted along it
CB2R-H95^2.65A, sequence (P34972 whole entry H95A): as the sequence (P34972 whole entry V261L) above, with H95A, L261V counted along it
CB2R-L182^ECL2I, sequence (P34972 whole entry L182I): as the sequence (P34972 whole entry V261L) above, with L182I, L261V counted along it

SMILES: CCCCCCC(C)(C)c1cc(OC)c([C@@H]2C=C(CO)[C@@H]3C[C@H]2C3(C)C)c(OC)c1 [HU308]
- ET (engagement time) (hCB2R): 143 s and 143 ± 47.9 s
- Emax (CB2R WT; maximum effect at 10 µM compared to WT (Suppl. Table 6)): 105 ± 3%
- Emax (CB2R WT; maximum effect compared to CP55,940): 91 ± 8%
- [35S]GTPγS binding, percentage of WT (CB2R WT; WT, log [ligand] (M) -10, individual replicates): 12.69 percentage of WT and 0.12 percentage of WT and -18.99 percentage of WT and 12.94 percentage of WT and 1.90 percentage of WT and -10.30 percentage of WT and -18.00 percentage of WT and 0.09 percentage of WT and 9.81 percentage of WT and 3.21 percentage of WT
- [35S]GTPγS binding, percentage of CP55,940 (CB2R WT; log [agonist] (M) -5, individual replicates): 84.84% and 81.20% and 107.18%
- [35S]GTPγS binding, percentage of CP55,940 (CB2R WT; log [agonist] (M) -6, individual replicates): 42.88% and 70.07% and 64.55%
- [35S]GTPγS binding, percentage of CP55,940 (CB2R WT; log [agonist] (M) -7, individual replicates): 59.80% and 30.89% and 31.02%
- [35S]GTPγS binding, percentage of CP55,940 (CB2R WT; log [agonist] (M) -8, individual replicates): 26.43% and 5.08% and 10.60%
- [35S]GTPγS binding, percentage of CP55,940 (CB2R WT; log [agonist] (M) -9, individual replicates): -10.38% and -5.63% and -15.53%
- [35S]GTPγS binding, percentage of CP55,940 (CB2R WT; log [agonist] (M) -10, individual replicates): 1.23% and -8.38% and 14.06%
- Emax (CB2R-I110^3.29L): 122 ± 12%
- [35S]GTPγS binding (CB2R-I110^3.29L; log [ligand] (M) -5): 144.00 percentage of WT and 101.90 percentage of WT and 119.46 percentage of WT
- [35S]GTPγS binding (CB2R-I110^3.29L; log [ligand] (M) -6): 62.70 percentage of WT and 56.80 percentage of WT and 71.03 percentage of WT
- [35S]GTPγS binding (CB2R-I110^3.29L; log [ligand] (M) -7): 34.90 percentage of WT and 47.80 percentage of WT and 66.79 percentage of WT
- [35S]GTPγS binding (CB2R-I110^3.29L; log [ligand] (M) -8): 0.30 percentage of WT and -7.00 percentage of WT and 4.82 percentage of WT
- [35S]GTPγS binding (CB2R-I110^3.29L; log [ligand] (M) -9): -41.10 percentage of WT and -11.80 percentage of WT and -14.01 percentage of WT
- [35S]GTPγS binding (CB2R-I110^3.29L; log [ligand] (M) -10): -13.40 percentage of WT and -17.60 percentage of WT and 8.27 percentage of WT
- Emax (CB2R-I110^3.29A): 27 ± 10%
- [35S]GTPγS binding (CB2R-I110^3.29A; log [ligand] (M) -5): 7.61 percentage of WT and 53.50 percentage of WT and 22.50 percentage of WT and 24.96 percentage of WT
- [35S]GTPγS binding (CB2R-I110^3.29A; log [ligand] (M) -6): -2.63 percentage of WT and 15.83 percentage of WT and -2.10 percentage of WT and 11.35 percentage of WT
- [35S]GTPγS binding (CB2R-I110^3.29A; log [ligand] (M) -7): -21.19 percentage of WT and 26.20 percentage of WT and -0.60 percentage of WT and -1.65 percentage of WT
- [35S]GTPγS binding (CB2R-I110^3.29A; log [ligand] (M) -8): -20.10 percentage of WT and 21.60 percentage of WT and -13.80 percentage of WT and -17.12 percentage of WT
- [35S]GTPγS binding (CB2R-I110^3.29A; log [ligand] (M) -9): -21.53 percentage of WT and -16.40 percentage of WT and -20.30 percentage of WT and -26.64 percentage of WT
- [35S]GTPγS binding (CB2R-I110^3.29A; log [ligand] (M) -10): -16.86 percentage of WT and 2.60 percentage of WT and -15.20 percentage of WT and -22.40 percentage of WT
- Emax (CB2R-S285^7.39A): 65 ± 18%
- loss in potency compared to WT (CB2R-S285^7.39A; S285A mutant vs WT, [35S]GTPγS): 15 fold
- Emax (%) (CB2R-S285^7.39A; S285A mutant, at 10 µM compared to WT): unaffected
- Emax (CB2R-F117^3.36A): 5 ± 11%
- [35S]GTPγS binding (CB2R-F117^3.36A; F1173.36A, log [ligand] (M) -5, individual replicates): -12.18 percentage of WT and 25.21 percentage of WT and 1.54 percentage of WT
- Emax (CB2R-H95^2.65A): 67 ± 16%
- Emax (CB2R-V261^6.51L): 26 ± 7%
- drop in potency compared to WT (CB2R-V261^6.51L; V261L mutant vs WT, [35S]GTPγS): more than 120 fold
- [35S]GTPγS binding (CB2R-V261^6.51L; log [ligand] (M) -5): 38.70 percentage of WT and 22.83 percentage of WT and 16.52 percentage of WT
- [35S]GTPγS binding (CB2R-V261^6.51L; log [ligand] (M) -6): 9.87 percentage of WT and 8.25 percentage of WT and -4.25 percentage of WT
- [35S]GTPγS binding (CB2R-V261^6.51L; log [ligand] (M) -7): 4.21 percentage of WT and 12.98 percentage of WT and 17.88 percentage of WT
- [35S]GTPγS binding (CB2R-V261^6.51L; log [ligand] (M) -8): 19.13 percentage of WT and 1.74 percentage of WT and -11.50 percentage of WT
- [35S]GTPγS binding (CB2R-V261^6.51L; log [ligand] (M) -9): 9.08 percentage of WT and 5.95 percentage of WT and 6.43 percentage of WT
- [35S]GTPγS binding (CB2R-V261^6.51L; log [ligand] (M) -10): 7.31 percentage of WT and 13.50 percentage of WT and 10.09 percentage of WT
- Emax (CB2R-L185^ECL2H): 146 ± 8%
- Emax (CB2R-L182^ECL2I): 10 ± 7%
- Emax (CB2R-E181^ECL2D): 32 ± 3%
- Emax (CB2R-Quadruple^TM1,7): 1 ± 9%
- activation of CB2R-Quadruple^TM1,7 (CB2R-Quadruple^TM1,7): completely lost their ability to activate
- Displacement (%) of [3H]CP55,940 (hCB1R WT [1]): 6 ± 7%
- percentage specific [3H]CP55,940 binding (hCB1R WT [1]): 78.66 percentage and 99.84 percentage and 102.02 percentage
- percentage specific [3H]CP55,940 binding (CB1R-L359^6.51V): 49.24 percentage and 48.12 percentage and 78.61 percentage
- Displacement (%) of [3H]CP55,940 (CB1R-H270^ECL2L [2]): 46 ± 3%
- percentage specific [3H]CP55,940 binding (CB1R-H270^ECL2L [2]): 48.81 percentage and 55.24 percentage and 57.51 percentage
- Displacement (%) of [3H]CP55,940 (CB1R I267ECL2L [3]): -7 ± 19%
- percentage specific [3H]CP55,940 binding (CB1R I267ECL2L [3]): 143.22 percentage and 82.61 percentage and 94.20 percentage
- Displacement (%) of [3H]CP55,940 (CB1R D266ECL2E [4]): 34 ± 5%
- percentage specific [3H]CP55,940 binding (CB1R D266ECL2E [4]): 73.61 percentage and 56.25 percentage and 67.45 percentage
- Displacement (%) of [3H]CP55,940 (CB1R QuadrupleTM1,7 [5]): -13 ± 22%
- percentage specific [3H]CP55,940 binding (CB1R QuadrupleTM1,7 [5]): 134.56 percentage and 68.97 percentage and 134.64 percentage
- Agonist-mediated activation (hCB1R WT [6]): 0.8 ± 0.0 fold over its basal
- Agonist-mediated activation (CB1R-H270^ECL2L [7]): 1.2 ± 0.1 fold over its basal
- Agonist-mediated activation (CB1R I267ECL2L [8]): 0.8 ± 0.0 fold over its basal
- Agonist-mediated activation (CB1R D266ECL2E [9]): 0.8 ± 0.1 fold over its basal
- Agonist-mediated activation (CB1R QuadrupleTM1,7 [10]): 0.9 ± 0.0 fold over its basal
